Measurements taken from patent publication EP4610269A1, “UROKINASE PLASMINOGEN ACTIVATOR SURFACE RECEPTOR (UPAR) LIGANDS FOR DIAGNOSTIC OR THERAPEUTIC USE” (3B Pharmaceuticals GmbH, priority 2024, dated 2025).
pIC50: −log10 of the molar value. Where a SMILES comes first, the peptide text is derived from it. Bridges are numbered along the chain shown (N, C = ends). [ ]: non-standard residue; d: D form. The star is where a group is joined. DOTA = O=C(O)CN1CCN(CC(=O)O)CCN(CC(=O)*)CCN(CC(=O)O)CC1; Pro(cis-4-F) = O=C(O)[C@@H]1C[C@H](F)CN1; mTyr = N[C@@H](Cc1cccc(O)c1)C(=O)O; Hyp = O=C(O)[C@@H]1C[C@@H](O)CN1; αMeF = C[C@](N)(Cc1ccccc1)C(=O)O; Gly(cBu) = N[C@H](C(=O)O)C1CCC1; NMeQ = CN[C@@H](CCC(N)=O)C(=O)O; Pentanoyl(4-Me) = CC(C)CCC(=O)*; Cit = NC(=O)NCCC[C@H](N)C(=O)O; Aic = NC1(C(=O)O)Cc2ccccc2C1; Butoxycarbonyl = CCCCOC(=O)*; Nle = CCCC[C@H](N)C(=O)O; Orn = NCCC[C@H](N)C(=O)O; Nva = CCC[C@H](N)C(=O)O; Pentanoyl = CCCCC(=O)*; Aib = CC(C)(N)C(=O)O

Legend:
[1] = molecular target: T1, uPAR-expressing HEC-265 human endometrial adenocarcinoma cells (Homo sapiens, UniProt Q03405); test: Competitive FACS binding assay; conditions: pIC50 category of FACS binding
T1 construct: Cell surface uPAR-expressing HEC-265 human endometrial adenocarcinoma cells; host or cells: HEC-265
How it was run: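 HEC-265 cells incubated 1 h at 4 °C with 10 nM biotinylated uPAR peptide tracer plus increasing test compound, then stained with APC-streptavidin on ice. Median APC fluorescence by flow cytometry; 4PL fit gives pIC50.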

human uPAR (uPAR-Fc) = molecular target: T2, human uPAR (uPAR-Fc) (Homo sapiens, UniProt Q03405); test: Surface plasmon resonance (SPR) assay, single cycle kinetics; format: binding; conditions: pKD category for uPAR SPR activity assay; uPAR-Fc on Protein A-Chip, single cycle kinetics, 25°C; read-out: pKD CAT (converted)
T2 construct: comprising amino acids Leu23-Arg303 according to UniProt entry Q03405.1; purchased R&D Systems 10378-UK-100
How it was run: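 uPAR-Fc (Leu23-Arg303 extracellular domains, human IgG1 Fc) captured on Protein A chip to ~2000 RU; single-cycle kinetics at 25°C in HEPES running buffer pH 7.4 with 0.1% DMSO. KD from double-referenced sensorgrams fitted to 1:1 Langmuir model, reported as pKD.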

T2 sequence (Q03405 23-303): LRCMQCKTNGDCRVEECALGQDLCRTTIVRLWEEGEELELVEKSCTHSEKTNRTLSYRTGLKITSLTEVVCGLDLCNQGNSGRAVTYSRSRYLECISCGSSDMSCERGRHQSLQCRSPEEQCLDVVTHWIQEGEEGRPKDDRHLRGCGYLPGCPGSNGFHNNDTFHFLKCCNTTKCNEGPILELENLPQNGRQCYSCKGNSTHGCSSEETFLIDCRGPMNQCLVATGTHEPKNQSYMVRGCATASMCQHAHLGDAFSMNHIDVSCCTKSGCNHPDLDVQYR
T1 sequence (Q03405 23-335): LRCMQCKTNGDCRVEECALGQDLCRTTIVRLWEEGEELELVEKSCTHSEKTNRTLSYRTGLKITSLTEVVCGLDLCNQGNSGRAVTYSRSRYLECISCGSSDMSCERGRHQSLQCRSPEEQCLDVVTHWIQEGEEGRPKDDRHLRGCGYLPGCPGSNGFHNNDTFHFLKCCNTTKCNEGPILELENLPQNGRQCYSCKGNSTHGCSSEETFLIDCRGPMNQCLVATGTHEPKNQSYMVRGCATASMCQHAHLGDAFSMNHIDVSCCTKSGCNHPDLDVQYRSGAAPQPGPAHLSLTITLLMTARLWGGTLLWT

CC[C@H](C)[C@@H]1NC(=O)[C@@H](C)NC(=O)[C@@H]2CCCN2C(=O)[C@H](Cc2ccccc2)NC(=O)[C@H](Cc2ccc(O)cc2)NC(=O)[C@H](CCC(N)=O)NC(=O)[C@H](CCCNC(N)=O)NC(=O)[C@@H](NC(=O)CCC(C)C)CSSC[C@@H](C(N)=O)NC(=O)[C@H](C)NC1=O [UPAR-402, iHex-[Cys-Cit-Gln-Tyr-Phe-Pro-ala-Ile-Ala-Cys]-NH2] ({Pentanoyl(4-Me)}-C[Cit]QYFP[dA]IAC-NH2; disulfide 1-10)
pIC50 [1]: 7.50 to 7.90 | Kd (human uPAR (uPAR-Fc)): 1.58 to 10 nM

CC[C@H](C)[C@@H]1NC(=O)[C@H]([C@@H](C)CC)NC(=O)[C@@H](C)NC(=O)[C@@H]2CCCN2C(=O)[C@H](Cc2ccccc2)NC(=O)[C@H](Cc2ccc(O)cc2)NC(=O)[C@H](CCC(N)=O)NC(=O)[C@H](CCCNC(N)=O)NC(=O)[C@@H](NC(=O)CCC(C)C)CSSC[C@@H](C(N)=O)NC1=O [UPAR-405, iHex-[Cys-Cit-Gln-Tyr-Phe-Pro-ala-Ile-Ile-Cys]-NH2] ({Pentanoyl(4-Me)}-C[Cit]QYFP[dA]IIC-NH2; disulfide 1-10)
pIC50 [1]: 7.50 to 7.90 | Kd (human uPAR (uPAR-Fc)): 1.58 to 10 nM

CCCC[C@@H]1NC(=O)[C@H](CCCNC(=N)N)NC(=O)[C@@H](NC(=O)[C@H](CC(C)C)NC(=O)[C@H](CC(=O)O)NC(C)=O)CSSC[C@@H](C(N)=O)NC(=O)[C@H](CC(C)C)NC(=O)[C@H]([C@@H](C)CC)NC(=O)[C@@H](C)NC(=O)[C@@H]2CCCN2C(=O)[C@H](Cc2ccccc2)NC(=O)[C@H](Cc2ccc(O)cc2)NC1=O [UPAR-406, Ac-Asp-Leu-[Cys-Arg-Nle-Tyr-Phe-Pro-ala-Ile-Leu-Cys]-NH2] (Ac-DLCR[Nle]YFP[dA]ILC-NH2; disulfide 3-12)
pIC50 [1]: ≥ 8.00 | Kd (human uPAR (uPAR-Fc)): < 1.58 nM

CC[C@H](C)[C@@H]1NC(=O)[C@@H](C)NC(=O)[C@@H]2CCCN2C(=O)[C@H](Cc2ccccc2)NC(=O)[C@H](Cc2ccc(O)cc2)NC(=O)[C@H](CCC(N)=O)N(C)C(=O)[C@H](CCCNC(N)=O)NC(=O)[C@@H](NC(=O)CCC(C)C)CSSC[C@@H](C(N)=O)NC(=O)[C@H](CC(C)C)NC1=O [UPAR-407, iHex-[Cys-Cit-Nmq-Tyr-Phe-Pro-ala-Ile-Leu-Cys]-NH2] ({Pentanoyl(4-Me)}-C[Cit][NMeQ]YFP[dA]ILC-NH2; disulfide 1-10)
pIC50 [1]: ≤ 6.90 | Kd (human uPAR (uPAR-Fc)): 10 to 100 nM

CCCCC(=O)N[C@H]1CSSC[C@@H](C(N)=O)NC(=O)[C@H](CCC)NC(=O)[C@H]([C@@H](C)CC)NC(=O)[C@@H]2C[C@@H](O)CN2C(=O)[C@@H]2CCCN2C(=O)[C@H](Cc2ccccc2)NC(=O)[C@H](Cc2ccc(O)cc2)NC(=O)CNC(=O)[C@H](CCCNC(=N)N)NC1=O [UPAR-409, Pent-[Cys-Arg-Gly-Tyr-Phe-Pro-Hyp-Ile-Nva-Cys]-NH2] (Pentanoyl-CRGYFP[Hyp]I[Nva]C-NH2; disulfide 1-10)
pIC50 [1]: ≥ 8.00 | Kd (human uPAR (uPAR-Fc)): < 1.58 nM

CC[C@H](C)[C@@H]1NC(=O)[C@@H]2C[C@@H](O)CN2C(=O)[C@@H]2CCCN2C(=O)[C@H](Cc2ccccc2)NC(=O)[C@H](Cc2ccc(O)cc2)NC(=O)[C@H](CC(=O)O)NC(=O)[C@H](CCCNC(N)=O)NC(=O)[C@@H](NC(=O)CCC(C)C)CSSC[C@@H](C(N)=O)NC(=O)[C@H](CC(C)C)NC1=O [UPAR-410, iHex-[Cys-Cit-Asp-Tyr-Phe-Pro-Hyp-Ile-Leu-Cys]-NHz] ({Pentanoyl(4-Me)}-C[Cit]DYFP[Hyp]ILC-NH2; disulfide 1-10)
pIC50 [1]: ≥ 8.00 | Kd (human uPAR (uPAR-Fc)): < 1.58 nM

CCCCC(=O)N[C@H]1CSSC[C@@H](C(N)=O)NC(=O)[C@H](C2CCC2)NC(=O)[C@H]([C@@H](C)CC)NC(=O)[C@@H]2C[C@@H](O)CN2C(=O)[C@@H]2CCCN2C(=O)[C@H](Cc2ccccc2)NC(=O)[C@H](Cc2ccc(O)cc2)NC(=O)[C@H](CCC(N)=O)NC(=O)[C@H](CCCNC(=N)N)NC1=O [UPAR-411, Pent-[Cys-Arg-Gln-Tyr-Phe-Pro-Hyp-Ile-Cbg-Cys]-NH2] (Pentanoyl-CRQYFP[Hyp]I[Gly(cBu)]C-NH2; disulfide 1-10)
pIC50 [1]: ≥ 8.00 | Kd (human uPAR (uPAR-Fc)): < 1.58 nM

CCCC[C@@H]1NC(=O)[C@H](CCCNC(=N)N)NC(=O)[C@H](NC(=O)[C@H](CC(C)C)NC(=O)[C@H](CC(=O)O)NC(C)=O)CSSC[C@@H](C(N)=O)NC(=O)[C@H](CC(C)C)NC(=O)[C@H]([C@@H](C)CC)NC(=O)[C@H](C)NC(=O)[C@@H]2CCCN2C(=O)[C@H](Cc2ccccc2)NC(=O)[C@H](Cc2ccc(O)cc2)NC1=O [UPAR-412, Ac-Asp-Leu-[cys-Arg-Nle-Tyr-Phe-Pro-Ala-Ile-Leu-Cys]-NH2] (Ac-DL[dC]R[Nle]YFPAILC-NH2; disulfide 3-12)
pIC50 [1]: ≤ 6.90 | Kd (human uPAR (uPAR-Fc)): > 100 nM

CC[C@H](C)[C@@H]1NC(=O)[C@@H](C)NC(=O)[C@@H]2CCCN2C(=O)[C@H](Cc2ccccc2)NC(=O)[C@H](Cc2ccc(O)cc2)NC(=O)[C@H](CCCCNC(C)=O)NC(=O)[C@H](CCCNC(N)=O)NC(=O)[C@@H](NC(=O)CCC(C)C)CSSC[C@@H](C(N)=O)NC(=O)[C@H](CC(C)C)NC1=O [UPAR-413, iHex-[Cys-Cit-Lys(Ac)-Tyr-Phe-Pro-ala-Ile-Leu-Cys]-NH2] ({Pentanoyl(4-Me)}-C[Cit]K(Ac)YFP[dA]ILC-NH2; disulfide 1-10)
pIC50 [1]: ≥ 8.00 | Kd (human uPAR (uPAR-Fc)): < 1.58 nM

CC[C@H](C)[C@@H]1NC(=O)[C@H](CCCCNC(=O)CN2CCN(CC(=O)O)CCN(CC(=O)O)CCN(CC(=O)O)CC2)NC(=O)[C@@H]2CCCN2C(=O)[C@H](Cc2ccccc2)NC(=O)[C@H](Cc2ccc(O)cc2)NC(=O)[C@H](CCC(N)=O)NC(=O)[C@@H](C)NC(=O)[C@@H](NC(=O)CCC(C)C)CSSC[C@@H](C(N)=O)NC(=O)[C@H](CC(C)C)NC1=O [UPAR-414, iHex-[Cys-ala-Gln-Tyr-Phe-Pro-Lys(DOTA)-Ile-Leu-Cys]-NH2] ({Pentanoyl(4-Me)}-C[dA]QYFPK(DOTA)ILC-NH2; disulfide 1-10)
pIC50 [1]: 7.50 to 7.90 | Kd (human uPAR (uPAR-Fc)): 10 to 100 nM

CCCCOC(=O)N[C@H]1CSSC[C@@H](C(N)=O)NC(=O)[C@H](CCC)NC(=O)[C@H]([C@@H](C)CC)NC(=O)[C@@H]2C[C@@H](O)CN2C(=O)[C@@H]2C[C@H](F)CN2C(=O)[C@H](Cc2ccccc2)NC(=O)[C@H](Cc2cccc(O)c2)NC(=O)[C@H](CCCNC(=O)CN2CCN(CC(=O)O)CCN(CC(=O)O)CCN(CC(=O)O)CC2)NC(=O)[C@H]([C@@H](C)O)NC1=O [UPAR-415, Butoc-[Cys-Thr-Orn(DOTA)-My-Phe-4Cfp-Hyp-Ile-Nva-Cys]-NH2] (Butoxycarbonyl-CT[Orn](DOTA)[mTyr]F[Pro(cis-4-F)][Hyp]I[Nva]C-NH2; disulfide 1-10)
pIC50 [1]: ≥ 8.00 | Kd (human uPAR (uPAR-Fc)): < 1.58 nM

CCCCC(=O)N[C@H]1CSSC[C@@H](C(N)=O)NC(=O)[C@H](CCC)NC(=O)[C@H]([C@@H](C)CC)NC(=O)[C@@H]2C[C@@H](O)CN2C(=O)[C@@H]2CCCN2C(=O)[C@](C)(Cc2ccccc2)NC(=O)[C@H](Cc2ccc(O)cc2)NC(=O)[C@H](CCCCNC(=O)CN2CCN(CC(=O)O)CCN(CC(=O)O)CCN(CC(=O)O)CC2)NC(=O)[C@H](CCCNC(N)=O)NC1=O [UPAR-416, Pent-[Cys-Cit-Lys(DOTA)-Tyr-Amf-Pro-Hyp-Ile-Nva-Cys]-NH2] (Pentanoyl-C[Cit]K(DOTA)Y[αMeF]P[Hyp]I[Nva]C-NH2; disulfide 1-10)
pIC50 [1]: ≤ 6.90 | Kd (human uPAR (uPAR-Fc)): > 100 nM

CCCCC(=O)N[C@H]1CSSC[C@@H](C(N)=O)NC(=O)[C@H](CCC)NC(=O)[C@H]([C@@H](C)CC)NC(=O)[C@@H]2C[C@@H](O)CN2C(=O)[C@@H]2CCCN2C(=O)C2(Cc3ccccc3C2)NC(=O)[C@H](Cc2ccc(O)cc2)NC(=O)[C@H](CCCCNC(=O)CN2CCN(CC(=O)O)CCN(CC(=O)O)CCN(CC(=O)O)CC2)NC(=O)[C@H](CCCNC(N)=O)NC1=O [UPAR-417, Pent-[Cys-Cit-Lys(DOTA)-Tyr-Aic-Pro-Hyp-Ile-Nva-Cys]-NH2] (Pentanoyl-C[Cit]K(DOTA)Y[Aic]P[Hyp]I[Nva]C-NH2; disulfide 1-10)
pIC50 [1]: ≤ 6.90 | Kd (human uPAR (uPAR-Fc)): > 100 nM

CCCCC(=O)N[C@H]1CSSC[C@@H](C(N)=O)NC(=O)[C@H](CCC)NC(=O)[C@H]([C@@H](C)CC)NC(=O)[C@@H]2C[C@@H](O)CN2C(=O)C(C)(C)NC(=O)[C@H](Cc2ccccc2)NC(=O)[C@H](Cc2ccc(O)cc2)NC(=O)[C@H](CCCCNC(=O)CN2CCN(CC(=O)O)CCN(CC(=O)O)CCN(CC(=O)O)CC2)NC(=O)[C@H]([C@@H](C)O)NC1=O [UPAR-419, Pent-[Cys-Thr-Lys(DOTA)-Tyr-Phe-Aib-Hyp-Ile-Nva-Cys]-NH2] (Pentanoyl-CTK(DOTA)YF[Aib][Hyp]I[Nva]C-NH2; disulfide 1-10)
pIC50 [1]: 7.50 to 7.90 | Kd (human uPAR (uPAR-Fc)): 10 to 100 nM

CCCC[C@@H]1NC(=O)[C@H](CCCNC(=N)N)NC(=O)[C@@H](NC(=O)[C@H](CC(C)C)NC(=O)[C@H](CC(=O)O)NC(C)=O)CSSC[C@@H](C(N)=O)NC(=O)[C@H](CC(C)C)NC(=O)[C@@H](CC(C)C)NC(=O)[C@H](C)NC(=O)[C@@H]2CCCN2C(=O)[C@H](Cc2ccccc2)NC(=O)[C@H](Cc2ccc(O)cc2)NC1=O [UPAR-420, Ac-Asp-Leu-[Cys-Arg-Nle-Tyr-Phe-Pro-Ala-leu-Leu-Cys]-NH2] (Ac-DLCR[Nle]YFPA[dL]LC-NH2; disulfide 3-12)
pIC50 [1]: 7.00 to 7.40 | Kd (human uPAR (uPAR-Fc)): 10 to 100 nM
